Where a name gives a salt, the structure may show the parent alone. Marks after values point to notes of the source that are not given here.

Common to all, as to format: in vivo, rat
The subject of one test is kainate-induced epilepsy. The test is described as follows: Kainate-induced convulsions (epilepsy). The conditions noted are these: for Latency (s) to the first tonic-clonic seizure / Seizures (total number) / Mortality (%): kainic acid 10 μg/2 μl i.c.v.; for Latency (s) to the first tonic-clonic seizure / Seizures (total number): 30-min observation, mean ± S.E.M.; for Mortality (%): checked 2 h after convulsive agent. The procedure:
(§1) Male rats of the Sprague-Dawley strain (purchased from Charles River, Italy) weighing 280±20 g were used throughout all experiments. The animals were housed two-three to a cage under a constant light-dark cycle (lights on between 8.00 and 20.00) at 21° C. Commercial food and tap water were available ad libitum. All animals were used only once in the behavioral experiments.
Another group of animals were implanted under ether anaesthesia with a permanent plastic cannula in the right lateral ventricle (foramen interventriculare, Konig and Klippel A 6360) with another cannula into the right jugular vein. These animals were sacrificed at the end of behavioral procedure and the brains were utilized for biochemical analysis. Data were taken from animals showing no abnormalities at the postmortem examination. All experiments were carried out according to the European Community Council Directive 86/609/ECC and efforts were made to minimize animal suffering and to reduce the number of animals used.
Ropinirole (ropinirole hydrochloride, SmithKline Beecham, Italy) and dihydroergocryptine (DHECP) α-dihydroergocryptine methanesulfonate, Monsanto, Italy) were dissolved in saline and injected subcutaneously (s.c.) at the dose of 0.5 and 1 mg/kg/day for 7 days. In the experiments with kainate-induced convulsions, […], and again at the same time of the intracerebroventricular (i.c.v) injection on kainic acid; Control animals received an injection of saline alone with the same procedure.
Kainic acid (Sigma, USA) was dissolved in saline and injected i.c.v. at the dose of 10 μg/2 μi.
Over a 30-min observation, the following items were recorded per each animal receiving an i.c.v. injection of kainic acid: latency in s to the first tonic-clonic seizure; total number of seizures, percent rate of mortality (checked 2 h after the administration of the convulsive agent).
Behavioral scoring of kainate-induced convulsions was started immediately after i.c.v. injection of the drug and proceeded for 30 min. Ropinirole, DHECP or saline were injected twice, 30 min prior and, again, at the same time of the i.c.v. administration of kainic acid.

For test [1], the system named is animals with hypobaric hypoxia-induced amnesia. The test is described as follows: Open field spontaneous motor activity, hypobaric hypoxia. The conditions noted are these: vs intact controls and saline-treated hypoxic animals. The procedure:
as §1
(§2) Ropinirole (ropinirole hydrochloride, SmithKline Beecham, Italy) and dihydroergocryptine (DHECP) α-dihydroergocryptine methanesulfonate, Monsanto, Italy) were dissolved in saline and injected subcutaneously (s.c.) at the dose of 0.5 and 1 mg/kg/day for 7 days. In the experiments with kainate-induced convulsions, ropinirole or DHECP were injected intravenously (i.v.) 30 min prior, and again at the same time of the intracerebroventricular (i.c.v) injection on kainic acid; Control animals received an injection of saline alone with the same procedure.
Spontaneous motor activity was scored in a circular open field arena as described by Weijnen and Slangen, Pituitary, Adrenal and the Brain, pp221-235 (1982). Animals were put inside a circular lit-up arena, with the bottom divided into 27 areas of equal size.
(§3) In the first experiment, the effects of ropinirole or DHECP were studied on amnesia induced by hypobaric hypoxia in rats. After a 7-day pretreatment with ropinirole, DHECP or saline, a group of animals was subjected to acute hypobaric hypoxia by means of a hypobaric chamber (Chantiers et Ateliers de Bretagne, France) causing depression to 300 mmHg (Boismare et al., Gerentology, 24, 6-13 (1978)). After 3 min in the chamber, the animals were removed and admitted for behavioral testing. Intact control rats were also introduced into the chamber but not subjected to hypobaric hypoxia.

The test system is the same in test [2]. Put plainly: Shuttle-box active avoidance acquisition, hypobaric hypoxia-induced amnesia. The conditions noted are these: for Learners / CARs: hypobaric hypoxia; for CARs: mean ± S.E.M. The method, then: as §1, §2
Shuttle-box active avoidance acquisition was studied in a single session test as described in Bohus and De Wied, Endogenous Peptides and Learning and Memory Processes. Academic Press, New York, pp59-775, (1981). Briefly, the rats were trained to avoid the unconditioned stimulus (US) of a scrambled electrical foot-shock (0.20 mA) delivered through the grid floor. The conditioned stimulus (CS) was a buzzer presented for 3 s prior to the US. If no escape occurred within 20 s of CS/US presentation, the shock was terminated. A maximum of 30 conditioning trials were given with a variable intertrial interval averaging 60 s. The learning criterion was five consecutive conditioned avoidance responses (CARs). For those animals that reached the criterion in less than 30 trials, the remaining trials until 30 were considered as CARs. Indexes of avoidance behaviour were the total number of CARs and the percent number of learners per group.
as §3

For test [3] the test system is unchanged. Put plainly: Step-through passive avoidance, hypobaric hypoxia-induced amnesia. The conditions noted are these: for Latency: hypobaric hypoxia, median latency to re-enter dark box, max 300 s. The procedure:
as §1, §2
Passive avoidance behaviour was studied in a step-through type of passive avoidance situation (Ader et al., Psycon Sci, 26, 125-128 (1972)). Briefly the rats were adapted to the apparatus consisting of a large dark compartment equipped with a grid floor and a mesh-covered elevated runway attached to the front centre of the dark chamber. Adaptation training was followed by a single trial in which the rats were placed on the elevated platform and allowed to enter the dark box. Three such trials were given on the next day with an intertrial interval of 5 min after the trial. The rats received a single 2-s unavoidable scrambled foot-shock (0.20 mA) immediately after entering the dark compartment. Retention of the response was tested 24 h after the learning trial. The rats were placed on the elevated runway and the latency to re-enter the shock compartment was recorded up to a maximum of 300 s.
as §3

[4] abbreviates: kainate-induced seizures, summary of Table 3.
[5] abbreviates: hypobaric hypoxia-induced amnesia, summary of Table 1.

Regarding `CCCN(CCC)CCc1cccc2c1CC(=O)N2` [ROP, 4-[2-(di-n-propylamino)ethyl]-1,3-dihydro-2H-indolin-2-one hydrochloride], in the test on kainate-induced epilepsy (setting [4]), the “latency to the first tonic-clonic seizure (effect of treatment, in words)” value was “did not modify”; the “percent mortality rate (effect of treatment, in words)” value is on record as “significant decrease”; the “total number of kainate-induced seizures (effect of treatment, in words)” value is “did not modify”. Besides, the “Latency (s) to the first tonic-clonic seizure” value with kainate-induced epilepsy (0.5 mg/kg injected s.c. twice (30 min prior and at kainic acid)) is recorded as 69.4 ± 8.9 s. In addition, in the test with kainate-induced epilepsy (0.5 mg/kg injected s.c. twice), the “Seizures (total number)” value amounted to 7.1 ± 0.9 and the “Mortality (%)” value is 20^a %. In addition, the “Latency (s) to the first tonic-clonic seizure” value in the test with kainate-induced epilepsy (1 mg/kg injected s.c. twice (30 min prior and at kainic acid)) is on record as 65.4 ± 6.9 s. Moreover, in the test with kainate-induced epilepsy (1 mg/kg injected s.c. twice), the “Seizures (total number)” value was 6.9 ± 0.9 and the “Mortality (%)” value is 10^a %. In test [1], the “ambulation and rearing (effect of treatment, in words)” value is given as “higher”. The “number of CARs and percent number of learners in the shuttle-box (effect of treatment, in words)” value in test [2] (setting [5]) is “increase”. Moreover, in test [2] (0.5 mg/kg/day s.c. for 7 days), the Learners is given as 60^d percent and the CARs is 16.8 ± 1.3^b. Further, in test [2] (1 mg/kg/day s.c. for 7 days), the Learners is on record as 70^d percent and the CARs is 17.2 ± 1.5^b. For the same compound, the “latency to re-enter the dark box (effect of treatment, in words)” value in test [3] (setting [5]) was “increase”. Moreover, the Latency in test [3] (0.5 mg/kg/day s.c. for 7 days) is on record as 47^e,f. Further, the Latency in test [3] (1 mg/kg/day s.c. for 7 days) was 65^f.
